Measurements taken from patent publication US4241056A, “Penicillins and salts thereof” (Boehringer Ingelheim GmbH, priority 1978, dated 1980).
In brackets after ≈: the same amount, converted by molar mass. Where two headings read alike, the source gives them in different places.

Tests used:
[1] = system: pseudomonas aeruginosa walter; experiment: In vivo activity against experimental infection in mice; parameters: species or system mouse (NMRI); settings: sc, 168 h, subcutaneous, 7 days observation, read-out: ED50 (dose at which 50% of the animals survived)
Description: (§1) A number of compounds of this invention were tested in vivo in mice against experimental infections. Bacteria E. coli ATCC 11775 and pseudomonas aeruginosa walter were used as pathogens. An intraperitoneal infection with 0.2 ml of a 5% mucin suspension of the bacteria was induced. This corresponds to about 2×10^6 germs E. coli and 8×10^5 germs pseudomonas/mouse. Female NMRI mice were divided into groups of 10 animals each, two control groups remained untreated, the remaining groups were treated with different doses of the respective penicillins for the determination of the ED50 (dose at which 50% of the animals survived). The groups with the E. coli infection were treated with the substance 3 times on the first day (1, 4 and 7 hours post-infectionem) and for 2 days thereafter twice a day. The groups with the pseudomonas infection were treated with the substance applied 6 times on the first day (1, 3, 6, 9, 12, and 15 hours post-infectionem) and for 2 days thereafter twice a day. The observation time was in both cases 7 days.

[2] = system: E. coli ATCC 11775; experiment: as above; parameters: species or system mouse (NMRI); settings: Escherichia coli, 168 h, 7 days observation, read-out: ED50 (dose at which 50% of the animals survived)
Description: as §1

[3] = Serum (blood) level in rats; format: in vivo; settings: rat, average from 3 rats; for concentration at 0.5 h: 30 min.; for concentration at 1 h: 60 min.; for concentration at 2 h: 120 min.
Description: For the determination of the serum level in rats, typical representatives of the penicillins according to the invention were administered at a dosage of 10 mg/kg subcutaneously or 100 mg/kg per os to groups of 3 female FW 49 rats (weight 100 to 130 gm) each. Blood tests taken from the heart were worked up, and the obtained sera were tested by the cylinder test-agar diffusion method on plates with sarcina lutea ATCC 15957. The samples were compared with standard curves.

[4] = system: pseud. aerug. hamburg.; experiment: Influence of the size of the inoculum on the MIC-values; format: cell-based; settings: Pseudomonas aeruginosa
Description: (§2) For the penicillins C and H, which are typical representatives for this invention, the influence of the size of the inoculum on the MIC-values against ps. aerug. hamburg. and E. coli ATCC 11775 in the microtiter system was determined. Thereby 3 different sizes of inoculum (3.3×10^6, 3.3×10^4 and 3.3×10^2 in E. coli and 4.7×10^6, 4.7×10^4 and 4.7×10^2 in pseudomonas) were used. The reference system was again penicillin Q.

[5] = system: E. coli ATCC 11775; experiment: as above; format: cell-based; settings: Escherichia coli
Description: as §2

[6] = system: proteus mirabilis hamburgensis; experiment: MIC, serial dilution test in the microtiter system; format: cell-based; settings: 18 h, prot. mirabilis, 37° C., 18-20 hours
Description: (§3) The tests were performed according to the method of the serial dilution test in the microtiter system. The effect of the substances on bacteriostasis was examined in a fluid medium. The activity on bacteriostatis was examined at the following concentrations:
(§4) 10 gm of peptone, 8 gm of meat extract-oxoid, 3 gm of sodium chloride, 2 gm of sec. sodium phosphate were diluted with distilled water to 1000 ml (pH 7.2-7.4). Only in the test against streptococci 1% of glucose was added. The age of the primary cultures was about 20 hours. The standardizations of the pathogen suspension was effected by using a photometer according to "Eppendorf" (test tube diameter 14 mm, filter 546 nm) with the aid of the turbidity of a comparison suspension consisting of barium sulfate, this suspension being prepared by addition of 3.0 ml of 1% barium chloride solution to 97 ml of 1% sulfuric acid. After the standardization, streptococcus aronson were further diluted to a concentration of 1:15 and the other germs to a concentration of 1:1500 by menas of a sodium chloride solution.
(§5) 16 mg of the test substance were put into a 10 ml measuring flask and filled up to the mark with the solvent. The further dilution series was standardized with distilled water or the respective solvent.
(§6) The cavities of the microtiter plates were filled with 0.2 ml of nutrient medium. Then, 0.01 ml of the corresponding test substance dilution was added and inoculated with 0.01 ml of the standardized suspension. The bacteria were incubated at 37° C. for 18-20 hours. Control tests merely using the solvent were carried out simultaneously.
(§7) The measurement was carried out macroscopically to determine the minimal inhibitory (threshold) concentration, i.e. the lowest still bacteriostatically effective concentration.
(§8) Staphylococcus aureus SG 511, streptococcus aronson, streptococcus faecalis ATCC 10541, escherichia coli ATCC 9637, 11 775 and escherichia coli 12593/74 (β-lactamase carrier), pseudomonas aeruginosa hamburgensis and ATCC 10145, serratia marcescens ATCC 13 880, klebsiella pneumoniae ATCC 10 031 and 272 and proteus mirabilis hamburgensis.

[7] = system: klebsiella pneumoniae ATCC 10 031; experiment: MIC, serial dilution test in the microtiter system; format: cell-based; settings: 18 h, klebs pneum ATCC 10031, 37° C., 18-20 hours
Description: as §3, §4, §5, §6, §7, §8

[8] = system: escherichia coli ATCC 11775; experiment: MIC, serial dilution test in the microtiter system; format: cell-based; settings: ATCC11775, 18 h, E. coli ATCC 11775, 37° C., 18-20 hours
Description: as §3, §4, §5, §6, §7, §8

[9] = system: streptococcus faecalis ATCC 10541; experiment: MIC, serial dilution test in the microtiter system; format: cell-based; settings: Enterococcus faecalis, ATCC10541, 18 h; strept. faecal.; 37° C., 18-20 hours
Description: as §3, §4, §5, §6, §7, §8

[10] = system: escherichia coli ATCC 9637; experiment: MIC, serial dilution test in the microtiter system; format: cell-based; settings: ATCC9637, 18 h, E. coli ATCC 9637, 37° C., 18-20 hours
Description: as §3, §4, §5, §6, §7, §8

[11] = system: serratia marcescens ATCC 13 880; experiment: MIC, serial dilution test in the microtiter system; format: cell-based; settings: ATCC13, 18 h, serrat marcesc., 37° C., 18-20 hours
Description: as §3, §4, §5, §6, §7, §8

[12] = system: escherichia coli 12593/74 (β-lactamase carrier); experiment: MIC, serial dilution test in the microtiter system; format: cell-based; settings: 18 h, E. coli 12593/74 (β-lactamase carrier), 37° C., 18-20 hours
Description: as §3, §4, §5, §6, §7, §8

[13] = system: pseudomonas aeruginosa hamburgensis; experiment: MIC, serial dilution test in the microtiter system; format: cell-based; settings: 18 h, pseud. aerug. hamb., 37° C., 18-20 hours
Description: as §3, §4, §5, §6, §7, §8

[14] = system: pseudomonas aeruginosa ATCC 10145; experiment: MIC, serial dilution test in the microtiter system; format: cell-based; settings: ATCC10145, 18 h, pseud. aerug. ATCC 10145, 37° C., 18-20 hours
Description: as §3, §4, §5, §6, §7, §8

[15] = system: Staphylococcus aureus SG 511; experiment: MIC, serial dilution test in the microtiter system; format: cell-based; settings: SG511, 18 h, Staph. Aureus SG 511, 37° C., 18-20 hours
Description: as §3, §4, §5, §6, §7, §8

[16] = system: klebsiella pneumoniae 272; experiment: MIC, serial dilution test in the microtiter system; format: cell-based; settings: 18 h, klebs pneum. 272, 37° C., 18-20 hours
Description: as §3, §4, §5, §6, §7, §8

[17] = system: streptococcus aronson; experiment: MIC, serial dilution test in the microtiter system; format: cell-based; settings: 18 h, strept. aronson, 1% glucose added, 37° C., 18-20 hours
Description: as §3, §4, §5, §6, §7, §8

[18] = system: Pseudomonas; settings: in vivo as well as in vitro; cited from earlier work
[19] = ATCC11775, inoculum 3.3 × 10^2 germs/ml
[20] = ATCC11775, inoculum 3.3 × 10^4 germs/ml
[21] = ATCC11775, inoculum 3.3 × 10^6 germs/ml

Row | SMILES | ED50 [1] [mg/kg] | ED50 ([2]; ATCC11775, po, peroral) [mg/kg] | ED50 ([2]; ATCC11775, sc, subcutaneous) [mg/kg] | concentration at 0.5 h ([3]; oral 100 mg/kg) [ng/mL] | concentration at 1 h ([3]; oral 100 mg/kg) [ng/mL] | concentration at 2 h ([3]; oral 100 mg/kg) [ng/mL] | concentration at 1 h ([3]; sc, subcutaneous 10 mg/kg) [ng/mL] | concentration at 2 h ([3]; sc, subcutaneous 10 mg/kg) [ng/mL] | MIC [6] [µg/mL] | MIC [7] [µg/mL] | MIC [8] [µg/mL] | MIC [9] [µg/mL] | MIC [10] [µg/mL] | MIC [11] [µg/mL] | MIC [12] [µg/mL] | MIC [13] [µg/mL] | MIC [14] [µg/mL] | MIC [15] [µg/mL] | MIC [16] [µg/mL] | MIC [17] [µg/mL] | further results
1 | CC1(C)S[C@@H]2[C@H](NC(=O)[C@H](NC(=O)Nc3cnc(C4CC4)nc3O)c3ccc(O)cc3)C(=O)N2[C@H]1C(=O)O [C, D-α-[3-(2-cyclopropyl-4-hydroxy-5-pyrimidyl)-ureido]-p-hdroxybenzyl-penicillin sodium] | 7 | 30 | 1.5 | 3300 | 4800 | 1000 | 6800 | 400 | 1.25 | 40 | 1.25 | 10 | 2.5 | 1.25 | 80 | 2.5 | 1.25 | 0.3 | 80 | 0.08 | concentration at 0.5 h ([3]; sc, subcutaneous 10 mg/kg): 5100 ng/mL; MIC ([4]; inoculum 4.7 × 10^2 germs/ml): 2.5 µg/mL; MIC ([4]; inoculum 4.7 × 10^4 germs/ml): 5 µg/mL; MIC ([4]; inoculum 4.7 × 10^6 germs/ml): > 80 µg/mL; MIC [5, 19]: 2.5 µg/mL; MIC [5, 20]: 2.5 µg/mL; MIC [5, 21]: 2.5 µg/mL
2 | CC1(C)S[C@@H]2[C@H](NC(=O)C(C(=O)O)c3ccccc3)C(=O)N2[C@H]1C(=O)O (stereo partly shown) [Carbenicillin] |  |  |  |  |  |  |  |  |  |  |  |  |  |  |  |  |  |  |  |  | antipseudomonal activity [18]: only a poor activity
3 | CC1(C)S[C@@H]2[C@H](NC(=O)[C@H](NC(=O)Nc3cncnc3O)c3ccc(O)cc3)C(=O)N2[C@H]1C(=O)O [Compound A, D-α-[3-(4-hydroxy-5-pyrimidyl)-ureido]-p-hydroxybenzylpenicillin sodium] | 50 | 50 | 6 | 9100 | 9600 | 2900 | 8600 | 400 | 0.6 | 80 | 2.5 | 10 | 2.5 | 5 | > 80 | 5 | 2.5 | 0.3 | 80 | 0.08 | concentration at 0.5 h ([3]; sc, subcutaneous 10 mg/kg): 9300 ng/mL
4 | CC1(C)S[C@@H]2[C@H](NC(=O)[C@H](NC(=O)Nc3cnc(Cc4ccc(Cl)cc4)nc3O)c3ccc(O)cc3)C(=O)N2[C@H]1C(=O)O [D, D-α-[3-(2-p-chlorobenzyl-4-hydroxy-5-pyrimidyl)-ureido]-p-hydroxybenzyl-penicillin sodium] |  |  | 9 |  | 4100 | 1000 | 7100 | 300 | 1.25 | 5 | 1.25 | 10 | 2.5 | 1.25 | 80 | 5 | 2.5 | 0.08 | 10 | 0.02 | 
5 | CC1(C)S[C@@H]2[C@H](NC(=O)[C@H](NC(=O)Nc3cnc(Nc4ccccc4)nc3O)c3ccc(O)cc3)C(=O)N2[C@H]1C(=O)O [G, D-α-[3-(2-anilino-4-hydroxy-5-pyrimidyl)-ureido]-p-hydroxy-benzyl-penicillin sodium] |  |  | 8 |  | 600 | 100 | 5600 | 1500 | 2.5 | 10 | 1.25 | 5 | 0.6 | 0.3 | > 80 | 5 | 2.5 | 0.3 | 5 | 0.08 | 
6 | CC1(C)S[C@@H]2[C@H](NC(=O)[C@H](NC(=O)Nc3cnc(Nc4ccc(Cl)cc4)nc3O)c3ccc(O)cc3)C(=O)N2[C@H]1C(=O)O [H, D-α-[3-(2-p-chloroanilino-4-hydroxy-5-pyrimidyl)-ureido]-p-hydroxybenzyl-penicillin sodium] |  |  |  |  |  |  |  |  | 0.6 | 5 | 0.6 | 5 | 1.25 | 1.25 | 80 | 2.5 | 1.25 | 1.25 | 2.5 | 0.08 | MIC ([4]; inoculum 4.7 × 10^2 germs/ml): 2.5 µg/mL; MIC ([4]; inoculum 4.7 × 10^4 germs/ml): 2.5 µg/mL; MIC ([4]; inoculum 4.7 × 10^6 germs/ml): > 80 µg/mL; MIC [5, 19]: 0.3 µg/mL; MIC [5, 20]: 0.6 µg/mL; MIC [5, 21]: 1 µg/mL
7 | CC1(C)S[C@@H]2[C@H](NC(=O)[C@H](NC(=O)N3CCNC3=O)c3ccccc3)C(=O)N2[C@H]1C(=O)O [Q, reference compound] | 110 | 320 | 35 | 800 | 600 | 300 | 3700 | 400 |  |  | 10 (≈ 21.7 µM) |  | 20 (≈ 43.3 µM) |  |  | 10 (≈ 21.7 µM) | 5 (≈ 10.8 µM) |  |  |  | concentration at 0.5 h ([3]; sc, subcutaneous 10 mg/kg): 2800 ng/mL; MIC ([4]; inoculum 4.7 × 10^2 germs/ml): 5 µg/mL (≈ 10.8 µM); MIC ([4]; inoculum 4.7 × 10^4 germs/ml): 10 µg/mL (≈ 21.7 µM); MIC ([4]; inoculum 4.7 × 10^6 germs/ml): > 80 µg/mL; MIC [5, 19]: 10 µg/mL (≈ 21.7 µM); MIC [5, 20]: 10 µg/mL (≈ 21.7 µM); MIC [5, 21]: 10 µg/mL (≈ 21.7 µM)
8 | CC1(C)S[C@@H]2[C@H](NC(=O)C(c3ccccc3)S(=O)(=O)O)C(=O)N2[C@H]1C(=O)O (stereo partly shown) [Sulbenicillin] |  |  |  |  |  |  |  |  |  |  |  |  |  |  |  |  |  |  |  |  | antipseudomonal activity [18]: only a poor activity
